Strand notation (5' to 3'): a small letter for the sugar, then the base; units joined by * are phosphorothioate-linked, units joined directly phosphodiester-linked; [ ] holds rarer units or linkages, { } end groups; capitals alone tell only the bases. e = 2'-O-(2-methoxyethyl) (MOE); [5mC] = 5-methylcytosine; d = 2'-deoxy (DNA)
Key:
[1] = tested on: human PKK mRNA; test: Antisense inhibition of human PKK mRNA in HepaRG cells, 5,000 nM (Example 2); assay type: cell-based
Outline: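 HepaRG cells (20,000/well) electroporated with 5,000 nM MOE gapmer (phosphorothioate backbone, 5-methylcytosines) and harvested after ~24 h. PKK mRNA measured by qRT-PCR with primer probe set RTS3454, normalized to RIBOGREEN total RNA; percent inhibition versus untreated cells.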

[2] = tested on: captopril-induced vascular permeability; test: Dose-dependent effect on captopril-induced vascular permeability, Evans Blue OD600 (Example 13); assay type: in vivo, mouse; details: for OD600 nm of Evans Blue dye, Colon / OD600 nm of Evans Blue dye, Ears / OD600 nm of Evans Blue dye, Feet / OD600 nm of Evans Blue dye, Intestine: captopril Yes
Method: The effect of varying doses on ISIS 482584 on captopril-induced vascular permeability was evaluated.
Group 1 consisted of 4 mice and was treated with PBS administered subcutaneously twice a week for 3 weeks. No other treatment was administered to Group 1 which served as a control group to measure the basal levels of vascular permeability.
Group 2 consisted of 8 mice and was treated with PBS administered subcutaneously twice a week for 3 weeks. At the end of the treatment period, the mice were intraperitoneally administered 20 μg of captopril. Group 2 served as the control group for captopril-induced vascular permeability.
Group 3 consisted of 4 mice and was treated with PBS administered subcutaneously twice a week for 3 weeks. At the end of the treatment period, the mice were intraperitoneally administered 20 μg of captopril. The mice were also intraperitoneally administered 30 μg of Icatibant (HOE-140). […] served as a positive control for inhibition of captopril-induced vascular permeability.
(§1) Groups 4, 5, 6, 7, 8, and 9 consisted of 8 mice each and were treated with 2.5 mg/kg, 5 mg/kg, 10 mg/kg, 20 mg/kg, 40 mg/kg, or 80 mg/kg (corresponding to 5 mg/kg, 10 mg/kg, 20 mg/kg, 40 mg/kg, 80 mg/kg, or 160 mg/kg per week), respectively of ISIS 482584 administered subcutaneously twice a week for 3 weeks. At the end of the treatment period, the mice of all the groups were intraperitoneally administered 20 μg of captopril. Groups 4-9 served as the experimental treatment groups for examining the effect of varying doses of ISIS 482584 on captopril-induced vascular permeability.
(§2) All the groups were then injected with 30 mg/kg of Evans Blue solution in the tail vein. The mice were sacrificed 30 min after the Evans Blue solution administration and colons, feet, ears, and intestines were harvested. Blood samples were taken through cardiac puncture.
The harvested tissues were placed in formamide solution overnight to leach out the Evans Blue dye. The formamide solution containing feet and ear tissue was heated to 55° C. and left overnight.

[3] = tested on: vascular leakage; test: Vascular leakage, plasma Evans Blue OD620, captopril model (Example 13); assay type: in vivo, mouse; details: for Percentage of OD620 nm of Evans Blue dye compared to the PBS basal control, Plasma: captopril Yes
Method: as §1, §2
The blood drawn through cardiac puncture was immediately mixed with 3 times the volume of ice-cold ethanol. The solution was centrifuged at 15,000 g for 20 minutes at 4° C. to remove cell debris and precipitated plasma proteins. The ethanol extracts were further purified by ultra-filtration through a 10 kDa MWCO filter. The color intensity of the ethanol extracted plasma solution was then measured at OD620 nm. The results are presented in Table 67 as percentage increase or decrease of the OD values of the Group 1 PBS control.

[4] = dose 5 mg/kg, sc twice a week 3 weeks
[5] = dose 10 mg/kg, sc twice a week 3 weeks
[6] = dose 20 mg/kg, sc twice a week 3 weeks
[7] = dose 40 mg/kg, sc twice a week 3 weeks
[8] = dose 80 mg/kg, sc twice a week 3 weeks
[9] = dose 160 mg/kg, sc twice a week 3 weeks

**Q.** What does the source list for “531231 (eT*eA*eT*e[5mC]*eA*d[5mC]*dT*dG*dT*dA*d[5mC]*dT*dA*dG*dT*eT*eT*e[5mC]*e[5mC]*eT) [compound 531231]”?
**A.** % inhibition ([1]; HepaRG cells, 5,000 nM antisense oligonucleotide, human PKK mRNA, Table 18): 90%; % inhibition ([1]; HepaRG cells, 5,000 nM antisense oligonucleotide, 5-10-5 gapmers, Table 16): 93%; % inhibition ([1]; HepaRG cells, 5,000 nM antisense oligonucleotide, 5-10-5 gapmers, Table 17): 91%; % inhibition ([1]; HepaRG cells, electroporation with 5,000 nM antisense oligonucleotide, approximately 24 hours, PKK mRNA by RT-PCR (RTS3454), relative to untreated control cells, Table 5 experiment): 98%; % inhibition ([1]; HepaRG cells, electroporation with 5,000 nM antisense oligonucleotide, approximately 24 hours, PKK mRNA by RT-PCR (RTS3454), relative to untreated control cells, Table 6 experiment): 86%; % inhibition ([1]; HepaRG cells, electroporation, 5,000 nM antisense oligonucleotide, approx. 24 hours, primer probe set RTS3454, relative to untreated control cells, Table 11): 90%; % inhibition ([1]; HepaRG cells, electroporation, 5,000 nM antisense oligonucleotide, approx. 24 hours, primer probe set RTS3454, relative to untreated control cells, Table 12): 90%; % inhibition ([1]; Table 7, HepaRG cells, electroporation with 5,000 nM antisense oligonucleotide, approx. 24 hours, PKK mRNA by RT-PCR (RTS3454), relative to untreated control cells): 88%; % inhibition ([1]; Table 8, HepaRG cells, electroporation with 5,000 nM antisense oligonucleotide, approx. 24 hours, PKK mRNA by RT-PCR (RTS3454), relative to untreated control cells): 95%; % inhibition ([1]; Table 9 experiment, HepaRG cells, 20,000 cells per well, electroporation with 5,000 nM antisense oligonucleotide, approx. 24 hours, PKK mRNA by RT-PCR (RTS3454), relative to untreated control cells): 96%; % inhibition ([1]; Table 10 experiment, HepaRG cells, 20,000 cells per well, electroporation with 5,000 nM antisense oligonucleotide, approx. 24 hours, PKK mRNA by RT-PCR (RTS3454), relative to untreated control cells): 72%; % inhibition ([1]; Table 13, human PKK mRNA in HepaRG cells, 5-10-5 gapmers): 85%; % inhibition ([1]; human PKK mRNA in HepaRG cells, 5-10-5 gapmers, Table 14): 85%; % inhibition ([1]; human PKK mRNA, HepaRG cells, 5-10-5 motif oligonucleotides targeting SEQ ID NO: 1 and 10): 93%

**Q.** How did the “inhibition of human PKK mRNA” value ([1]; HepaRG cells, 5,000 nM, electroporation, 24 hours) turn out when “Tes Ges mCes Aes Aes Gds Tds mCds Tds mCds Tds Tds Gds Gds mCds Aes Aes Aes mCes Ae [ISIS 546254]” was run?
**A.** The value was 95%.

**Q.** Which “OD600 nm of Evans Blue dye, Colon” value [2, 4] does the source give for “ISIS 482584: 5-10-5 MOE gapmer targeting murine PKK, GGCATATTGGTTTTTGGAAT; SEQ ID NO: 2244 (antisense eG*eG*e[5mC]*eA*eT*dA*dT*dT*dG*dG*dT*dT*dT*dT*dT*eG*eG*eA*eA*eT)” here?
**A.** The value was 0.41.

**Q.** What about the “OD600 nm of Evans Blue dye, Ears” value [2, 4] of the same molecule?
**A.** Its value is 0.05.

**Q.** And the “OD600 nm of Evans Blue dye, Feet” value [2, 4]?
**A.** The value was 0.10.

**Q.** What about the “OD600 nm of Evans Blue dye, Intestine” value [2, 4] of the same molecule?
**A.** The value was 0.17.

**Q.** What about the “OD600 nm of Evans Blue dye, Colon” value [2, 5] of the same molecule?
**A.** The value was 0.41.

**Q.** What about the “OD600 nm of Evans Blue dye, Ears” value [2, 5] of the same molecule?
**A.** Its value is 0.05.

**Q.** What about the “OD600 nm of Evans Blue dye, Feet” value [2, 5] of the same molecule?
**A.** The value was 0.10.

**Q.** What about the “OD600 nm of Evans Blue dye, Intestine” value [2, 5] of the same molecule?
**A.** The value was 0.19.

**Q.** And the “OD600 nm of Evans Blue dye, Colon” value [2, 6]?
**A.** The value was 0.40.

**Q.** What about the “OD600 nm of Evans Blue dye, Ears” value [2, 6] of the same molecule?
**A.** The value was 0.07.

**Q.** And the “OD600 nm of Evans Blue dye, Feet” value [2, 6]?
**A.** Its value is 0.11.

**Q.** What about the “OD600 nm of Evans Blue dye, Intestine” value [2, 6] of the same molecule?
**A.** Its value is 0.20.

**Q.** And the “OD600 nm of Evans Blue dye, Colon” value [2, 7]?
**A.** The value was 0.36.

**Q.** And the “OD600 nm of Evans Blue dye, Ears” value [2, 7]?
**A.** The value was 0.05.

**Q.** What about the “OD600 nm of Evans Blue dye, Feet” value [2, 7] of the same molecule?
**A.** The value was 0.10.

**Q.** What about the “OD600 nm of Evans Blue dye, Intestine” value [2, 7] of the same molecule?
**A.** The value was 0.20.

**Q.** What about the “OD600 nm of Evans Blue dye, Colon” value [2, 8] of the same molecule?
**A.** The value was 0.21.

**Q.** And the “OD600 nm of Evans Blue dye, Ears” value [2, 8]?
**A.** Its value is 0.03.

**Q.** What about the “OD600 nm of Evans Blue dye, Feet” value [2, 8] of the same molecule?
**A.** The value was 0.04.

**Q.** What about the “OD600 nm of Evans Blue dye, Intestine” value [2, 8] of the same molecule?
**A.** Its value is 0.17.

**Q.** And the “OD600 nm of Evans Blue dye, Colon” value [2, 9]?
**A.** The value was 0.26.

**Q.** What about the “OD600 nm of Evans Blue dye, Ears” value [2, 9] of the same molecule?
**A.** Its value is 0.05.

**Q.** What about the “OD600 nm of Evans Blue dye, Feet” value [2, 9] of the same molecule?
**A.** The value was 0.10.

**Q.** And the “OD600 nm of Evans Blue dye, Intestine” value [2, 9]?
**A.** The value was 0.15.

**Q.** What about the “captopril-induced vascular permeability” value ([2]; higher doses (Groups 4, 5, and 6) vs PBS control group (Group 2)) of the same molecule?
**A.** The value was “reduced levels of captopril-induced vascular permeability”.

**Q.** And the “vascular leakage” value ([3]; 160 mg/kg/week and 80 mg/kg/week, vs PBS negative control treated with captopril)?
**A.** The value was “less vascular leakage”.

**Q.** What about the “Percentage of OD620 nm of Evans Blue dye compared to the PBS basal control, Plasma” value (“Percentage of OD620 nm of Evans Blue dye” below) ([3]; dose 5 mg/kg) of the same molecule?
**A.** Its value is −23%.

**Q.** And the “Percentage of OD620 nm of Evans Blue dye” value ([3]; dose 10 mg/kg)?
**A.** Its value is −20%.

**Q.** And the “Percentage of OD620 nm of Evans Blue dye” value ([3]; dose 20 mg/kg)?
**A.** The value was −26%.

**Q.** And the “Percentage of OD620 nm of Evans Blue dye” value ([3]; dose 40 mg/kg)?
**A.** The value was −31%.

**Q.** And the “Percentage of OD620 nm of Evans Blue dye” value ([3]; dose 80 mg/kg)?
**A.** Its value is 40%.

**Q.** And the “Percentage of OD620 nm of Evans Blue dye” value ([3]; dose 160 mg/kg)?
**A.** The value was 91%.

**Q.** How did the “OD600 nm of Evans Blue dye, Colon” value ([2]; HOE-140 30 μg ip) turn out when NC(N)=NCCC[C@@H](N)C(=O)N[C@@H](CCCN=C(N)N)C(=O)N1CCC[C@H]1C(=O)N1C[C@H](O)C[C@H]1C(=O)NCC(=O)N[C@@H](Cc1cccs1)C(=O)N[C@@H](CO)C(=O)N1Cc2ccccc2C[C@@H]1C(=O)N1[C@H](C(=O)N[C@@H](CCCN=C(N)N)C(=O)O)C[C@@H]2CCCC[C@@H]21 [HOE-140, Icatibant, reference compound] was run?
**A.** The value was 0.15.

**Q.** What about the “OD600 nm of Evans Blue dye, Ears” value ([2]; HOE-140 30 μg ip) of the same molecule?
**A.** Its value is 0.04.

**Q.** And the “OD600 nm of Evans Blue dye, Feet” value ([2]; HOE-140 30 μg ip)?
**A.** The value was 0.03.

**Q.** And the “OD600 nm of Evans Blue dye, Intestine” value ([2]; HOE-140 30 μg ip)?
**A.** Its value is 0.10.

**Q.** What about the “Percentage of OD620 nm of Evans Blue dye” value ([3]; HOE-140 30 μg ip) of the same molecule?
**A.** The value was 5%.

— patent US11840686B2, “Modulation of prekallikrein (PKK) expression” (Ionis Pharmaceuticals, Inc., priority 2013, dated 2023)
